Assay results from patent US12241058B2, “Recombinant microbial system for directed evolution of glycocins and method of preparation thereof” (COUNCIL OF SCIENTIFIC & INDUSTRIAL RESEARCH, priority 2018, dated 2025).
No end group written: not given here. *: point of attachment. X1 = OC[C@H]1O[C@@H](O[C@H]2[C@H](O)[C@@H](O)[C@H](*)O[C@@H]2CO)[C@H](O)[C@@H](O)[C@@H]1O

Legend:
L. monocytogenes EGD-e = test: Agar diffusion test (ADT) of cell lysates, zone of growth inhibition, with PAS staining for glycosylation; format: cell-based, Listeria monocytogenes; details: for Zone of inhibition as well as glycosylation positive: ADT against L. monocytogenes, cleavage buffer treated cell lysate, glycosylation by PAS staining
human red blood cells = test: Hemolytic assay; format: cell-based
Description: Samples were prepared within 3 h of performing the assay. Neo-glycocins stock solutions of 1 mg/ml were prepared by dissolving the neo-glycocins in PBS (10 mM phosphate buffer, pH 7.4); the samples were mixed by inversion to ensure neo-glycocins were completely dissolved in PBS. To prepare the Human Red Blood Cell (hRBC) solution, blood was collected from healthy individual and RBCs were isolated following standard procedure. Informed consent was acquired from all donors and this work was carried out in compliance with the ethical committee guidelines of CSIR-IMTECH with IEC NO SUIEC/14/03.
2 ml whole blood from healthy individual was centrifuged for 30 mins at 1000 rpm(4° C.). Layer of RBCs was collected and diluted with equal volume of 1×PBS and mixture was centrifuged three times for 10 mins at 1000 rpm, 4° C. To prepare 4% RBC solution, 1 ml of RBC were mixed with 24 ml 1×PBS. To examine the hemolysis property of neo-glycocins (75-1000 μM), 20 μl of freshly prepared neo-glycocins solution was mixed with 180 μl of freshly prepared hRBC solution and was placed at 37° C. for 1 h. A total of 20 μl of PBS buffer only and 20 μl of Triton X-100 1% (w/v) were mixed with 180 μl of hRBC solution as negative and positive controls, respectively. After 1 h of incubation, all samples were centrifuged at 2500 rpm for 10 min. A total of 100 μl of supernatant was collected, and the release of hemoglobin was monitored by measuring the absorbance of the supernatant at 570 nm with a Multiskan Go plate-reader (Thermo Scientific). Hemolysis percentage for each sample was calculated by dividing sample's absorbance on positive control absorbance (complete hemolysis) multiplied by 100.

L. monocytogenes [1] = test: Determination of the MIC against L. monocytogenes (96-well broth dilution); format: cell-based, Listeria monocytogenes; details: Minimum Inhibitory Concentration against L. monocytogenes, 18 h at 37° C.
Description: One colony of an indicator strain (L. monocytogenes) was picked from an NB agar plate, inoculated to liquid NB medium and grown at 37° C., in a shaking incubator until OD^600 nm of 0.5 was reached. Then, the culture was diluted with NB medium and serial twofold dilutions with NB medium were made. Hundred microliters of Enterocin 96 solution (1 mg/ml in MQ) were transferred to a 96-well plate and mixed with 100 μl previously prepared cell suspension of sensitive strain. Similarly, positive control Nisin (1 mg/ml in MQ, Sigma Cat. # N5764), 100 μl mixture of NB medium with the Listeria, and negative controls (media alone, untreated indicator strain). 100 μL mixture of NB medium were prepared and dispersed in the same 96-well plates. The plate was incubated for 18 h at 37° C. in a shaking incubator. After incubation, the growth of bacteria was evaluated visually and by a plate reader. The analyses were performed in triplicate. Similarly, MIC of other variants of Enterocin 96 (neo-glycocins) was determined using above described method.

HepG2 cells = test: Anti-cancer MTT reduction assay; format: cell-based
Description: (§1) Cytotoxicity of Enterocin 96 and its variants (neo-glycocins) against THP-1 cells and anti-cancer potential against HepG2 cells was measured by the conventional MTT reduction assay. HepG2 and THP-1 cells (1×10^4 cells/well) were seeded into the 96-well plate and cultured at 37° C. in an atmosphere of 5% CO2 to allow them to adhere overnight. After 24 hours, the cells were exposed to Enterocin 96 and its variants (neo-glycocins) at various concentrations (75-1000 μM) for 18-24 hours. After the incubation period, 150 μl media and the suspended cells were discarded and washed with 200 μl PBS. After that, 200 μl of fresh media was added followed by 20 μl of MTT (5 mg/mL) into each well in the 96-well plate and incubated for 4 h in CO2 incubator. One hundred and fifty microlitres of medium with MTT was removed from every well and 100 μl DMSO was added to each well to solubilize the formazan crystal by incubating for 20 min in CO2 incubator. Finally, the plates were read at 570 nm by using Multiskan Go plate-reader (Thermo Scientific) and then percentage of cell viability was determined.

THP-1 cells = test: Cytotoxicity MTT reduction assay; format: cell-based
Description: as §1

bacterial strains = test: Antimicrobial spectrum by ADT against bacterial strains; format: cell-based; details: FIG. 5B a-i
Description: (§2) FIG. 5B (d-i): Confirmation of antimicrobial activity of cleaved neo glycocins against bacterial strains namely L. monocytogenes EGDe (FIG. 5Bd-e): Vibrio cholera MTCC 3904 (FIG. 5Bf), E. coli 1610 (FIG. 5Bg), Bacillus lichenmformis MTCC 9857 (FIG. 5Bh) and Bacillus halodurans MTCC 7181 (FIG. 5Bi) using ADT;
Simultaneously, to check the change in spectrum of bioactivity of neo-glycocins, the agar plates of L. monocytogenes EGD-e seeded with approximately 10^7 bacterial cells were prepared. A 100 μL of cell lysate of mutants were added into the each well and then the plate was incubated at 4° C. for 1 h followed by overnight incubation at 37° C. The presence of inhibition zones around the wells was checked. The antimicrobial activity was determined by monitoring the zone of growth inhibition. […] The glycosylation status of the neo-glycocin produced from the selected mutant were analyzed using PAS staining and MALDI-TOF and LC-ESI-MS analysis as discussed below.

[2] = Cytotoxicity MTT reduction assay; format: cell-based; details: human; 50% cell death, THP-1 cells, MTT, 18-24 hours
Description: as §1

[3] = tested on: L. monocytogenes MTCC 839; test: Agar diffusion test (ADT) of cleaved neo-glycocins; format: cell-based, Listeria monocytogenes; details: L. monocytogenes MTCC 839, FIG. 5Bd-e
E. coli MTCC 1610 = test: Agar diffusion test (ADT) of cleaved neo-glycocins; format: cell-based
Excerpt: as §2
Where in #1, f and g: cell lysate of cleavage buffer treated C13T, a variant of Enterocin 96 having SEQ ID NO: 10; #2, f and g: positive control parent peptide Enterocin 96 diglycosylated having SEQ ID NO: 9; #3, f and g: negative control/lysis buffer; #4.f and g: is negative control/cleavage buffer;
(§3) The cell lysate containing glycocins were directly subjected to agar diffusion test (ADT) using L. monocytogenes EGD-e. In ADT, the agar plates seeded with L. monocytogenes EGD-e (approximately 10^7 cells) were prepared. Approximately 100 μL lysate containing glycocin or its variants (neo-glycocin) (SEQ ID NO: 9, SEQ ID NO: 10 and SEQ ID NO: 11) were applied into the wells in the seeded plate followed by incubation of the plate at 4° C. for 1 h. Presence of inhibition zones around the wells was checked post overnight incubation of the plates at 37° C. The antimicrobial activities of the glycocin and neo-glycocin were determined by monitoring the zone of growth inhibition on the plates.

[4] = tested on: Bacillus licheniformis MTCC 9857; test: Agar diffusion test (ADT) of cleaved neo-glycocins; format: cell-based
Excerpt: as §2
Wherein #1, h and i: cell lysate of cleavage buffer treated C13T, a variant of Enterocin 96 having SEQ ID NO: 10; #2, h and i: positive control parent peptide Enterocin 96 diglycosylated having SEQ ID NO: 9; #3, h and i: negative control/cleavage buffer; #4, h and i: is nisin (1 mg/ml).
as §3

L. monocytogenes [5] = test: pH and heat stability, bioactivity verified using ADT assay; details: 121° C. for 15 minutes

## neo-glycocin with pediocin box (YYGNGV): MASKYYGNGVKRDCNLMKACCAGQAVTYAIHSLLNRLGGDSSDPAGCNDIVRKYCK (not fully specified; cysteine pairing not given here) [SEQ ID NO: 11]
L. monocytogenes EGD-e
  Zone of inhibition as well as glycosylation positive: positive
L. monocytogenes EGD-e; listed as PedioEnt96
  Zone of inhibition as well as glycosylation positive: Yes
L. monocytogenes EGD-e; monoglycosylated length and glycan variant, strain not specified
  Activity against L. monocytogenes compared with diglycosylated glycocin: as active as diglycosylated glycocin
Human red blood cells
  Hemolysis (MHC in μM): 600 µM
L. monocytogenes [1]
  Anti-bacterial activity (MIC in μM): >0.54 µM
HepG2 cells; 50% cell (cancerous) death, HepG2 cells, MTT, 18-24 hours
  IC50: 192.1 ± 0.135 µM
THP-1 cells; 50% cell death, THP-1 cells, MTT, 18-24 hours
  IC50: 233.6 ± 0.132 µM
Bacterial strains
  Antimicrobial spectrum compared with native glycocin / Nisin and Enterocin 96: different antimicrobial spectrum

## MASKRDCNLMKACCAGQAVTYAIHSLLNRLGGDC(X1)SDPAGCNDIVRKYCK (cysteines drawn unpaired) [SEQ ID NO: 40]
L. monocytogenes EGD-e
  Zone of inhibition as well as glycosylation positive: positive
L. monocytogenes EGD-e; listed as S34C
  Zone of inhibition as well as glycosylation positive: Yes
L. monocytogenes EGD-e; ADT, L. monocytogenes EGDe, FIG. 5Bd-e
  Bioactivity compared with the parent peptide: equally bioactive
[2]
  IC50: 314.7 ± 0.18 µM
[3]
  Bioactivity compared with the parent peptide: equally bioactive

## MASKRDCNLMKATCAGQAVTYAIHSLLNRLGGDS(X1)SDPAGCNDIVRKYCK (cysteines drawn unpaired) [SEQ ID NO: 10]
E. coli MTCC 1610
  Bioactivity against Gram negative bacteria E. coli MTCC 1610: observed
L. monocytogenes EGD-e
  Zone of inhibition as well as glycosylation positive: positive
L. monocytogenes EGD-e; listed as C13T
  Zone of inhibition as well as glycosylation positive: Yes
[4]
  Bioactivity against Gram positive spore forming bacteria Bacillus licheniformis MTCC 9857: observed
Human red blood cells; FIG. 6A
  Hemolysis compared with Nisin and Enterocin 96: no significant change
HepG2 cells; HepG2, FIG. 6C
  Cytotoxicity compared with Nisin and Enterocin 96: no significant change
THP-1 cells; THP-1, FIG. 6B
  Cytotoxicity compared with Nisin and Enterocin 96: no significant change
[2]
  IC50: 248.6 ± 0.105 µM
L. monocytogenes [5]
  Bioactivity against L. monocytogenes post autoclaving: retain bioactivity
Water solubility
  Water solubility: water soluble
Bacterial strains
  Antimicrobial spectrum compared with native glycocin / Nisin and Enterocin 96: different antimicrobial spectrum
Bacterial strains; listed as C13T
  Antimicrobial spectrum compared with native glycocin / Nisin and Enterocin 96: improved antibacterial spectrum

## MASKRDCNLMKACCAGQAVTYAIHSLLNRLGGDS(X1)SDPAGCNDIVRKYCK (cysteines drawn unpaired) [SEQ ID NO: 9, Enterocin 96, reference compound]
E. coli MTCC 1610
  Bioactivity against Gram negative bacteria E. coli MTCC 1610: not
[4]
  Bioactivity against Gram positive spore forming bacteria Bacillus licheniformis MTCC 9857: not
[2]
  IC50: 194.1 ± 0.119 µM
